Data published in publication PMC5566973 (Frontiers in Pharmacology, 2017).
Like-named read-outs stand apart in the source and are kept apart here.

Assays:
[1] = Pharmacokinetics in rats after intravenous and intragastric administration; settings: for bioavailability: F%
Description: Fifty-six pathogen-free Sprague-Dawley adult rats comprising 28 males and 28 females (weighing within the range of 200–250 g) were obtained from Drug Safety Evaluation and Research Center of Shanghai University of Traditional Chinese Medicine. Animals were raised under an environmentally controlled breeding room for 7 days before commencing the experiments. Animals were housed in a well-lighted air-conditioned room (25 ± 1°C) under standard environmental conditions (12 h light-dark cycles) and given free access to rodent chow and tap water prior to the study. Rats were fasted for 12 h and provided free access to water prior to the experiments. All animal-use procedures were in accordance with the regulations for animal experimentation issued by the State Committee of Science and Technology of the People's Republic of China on 14 November 1988 and approved by the Animal Ethics Committee of Shanghai University of Traditional Chinese Medicine (No. SUTCM-2011-1107; Approval date: 10 November, 2011).
Forty rats with 20 males and 20 females were randomly divided into five groups of eight rats in each. […] Approximately 0.25 mL of blood sample was collected from the angular vein of each conscious rat and transferred into heparinized tubes at 0 (predose), 0.03, 0.08, 0.25, 0.5, 0.75, 1.0, 2.0, 4.0, 8.0, 12.0, and 24.0 h after administration. Rats had free access to water after 4.0 h of blood sample collection. Serial blood samples were immediately centrifuged at 3,000 rpm for 15 min, and 100 μL of the supernatant plasma layer was transferred into another new 1.5 mL centrifuge tube and stored at −80°C until analysis.
The maximum peak concentration (Cmax) and time of maximum plasma concentration (Tmax) were obtained directly from the observed concentration vs. time data.
(5) F=(AUC0−∞,oral×Doseiv)/(AUC0−∞,iv×Doseoral)×100%

[2] = Urinary and fecal excretion in rats; type: in vivo, Sprague-Dawley rats; settings: for Cumulative excretion of the analyte, SUM of urine and feces: within 72 h
Description: Access to water was maintained all the time. Samples including blank urine and feces before dosing, urine and feces from 0 to 24 h, 24 to 48 h, and 48 to 72 h after dosing were collected and stored at −80°C until analysis.
Urine samples were thawed and an aliquot of 100 μL was processed for detection as described in Section Drug Analysis. Feces were homogenized and then weighed, added 6-folds of acetonitrile, extracted by ultrasonic wave for 1 h and then centrifuged. An aliquot of 100 μL was also processed for detection as described in Section Drug Analysis.

[3] = tested on: MDCK-MRP2 cell monolayers; test: Bidirectional transport in MDCK-MRP2 cell monolayers with MRP2 inhibitors; type: in vitro ADME, canine; settings: MDCK-MRP2, 2 μM
Description: (§1) Caco-2, MDCK and MDCK-MRP2 cells were donated by Prof. Yan Xie and Yueming Ma from Shanghai University of Traditional Chinese Medicine. The cells were grown in culture dishes (Corning® Costar, Cambridge, MA, USA) using DMEM supplemented with 10% FBS, 1% NEAA and 1% penicillin-streptomycin solution. The cells were cultured in 5% CO2 and […] with 90% relative humidity at 37°C. The medium was replaced every other day during incubation. The cells were passaged every 3–4 days between 70 and 80% confluence at a 1:5 split ratio using 0.25% trypsin-EDTA. For the transport experiments, the cells from passages between 30 and 45 were seeded at 1 × 10^5 cells/cm^2 onto permeable polycarbonate inserts (0.45 μm pore size, seeding surface of 0.6 cm^2, Millipore, MA, USA) in 24-well plastic plates. The media in the culture plates were changed every other day for the first week after seeding and were replaced daily afterward. […] The cells were used for the transport experiments 21–28 (Caco-2) or 5–7 (MDCK and MDCK-MRP2) days after seeding, and only monolayers with a TEER-value above 420 Ω cm^2 were used during the studies.
(§2) The apical (AP) and basolateral (BL) sides are typical of polarized Caco-2, MDCK and MDCK-MRP2 epithelial cells. Before the experiments, the polarized cell monolayers were washed twice with warm HBSS solution and subsequently preincubated (37°C, 30 min). Afterward, HBSS solution on both sides of the cell monolayers was removed using a mini desktop vacuum pump. […] The final DMSO concentration in the HBSS or drug mixture was below 0.5%. The monolayers were incubated at 37°C, and 100 μL samples were taken at 30, 60, 90, and 120 min from the acceptor compartment and immediately replaced with the same volume of prewarmed fresh blank HBSS. TEER measurements for assessing the membrane integrity took place before and after the experiments.
(§3) The apparent permeability coefficients (Papp) and ER were calculated as Equations (2) and (3): […]
(§4) where dQ/dt is the steady-state flux, A is the membrane surface area, and C0 is the initial drug concentration in the donor compartment. PappBA is the Papp-value measured in BL to AP direction and PappAB is the Papp-value measured in AP to BL direction. It indicated the involvement of an active transport process when the ER-value is above 1.5 (Hubatsch et al., [2007]).

[4] = tested on: MRP2; test: as above; type: in vitro ADME, canine; settings: dog, MDCK-MRP2, 2 μM; for efflux ratio at 120 min, 2 μM: read-out: ER
Description: as §1, §2, §3, §4

[5] = parameters: method as in Zhang, 2013; Shi et al., 2014; settings: dogs, oral total alkaloid extracts from P. harmala 140 mg/kg; ref Zhang, 2013; Shi et al., 2014; cited from earlier work
[6] = both, Sprague-Dawley, rat, in vivo, iv, 3.3 mg/kg
[7] = both, Sprague-Dawley, rat, in vivo, iv, 3.3 mg/kg, rats, i.v. 3.3 mg/kg
[8] = both, Sprague-Dawley, rat, in vivo, po, 40 mg/kg
[9] = both, Sprague-Dawley, rat, in vivo, po, 40 mg/kg, rats, harmine p.o. 40.0 mg/kg co-administered with probenecid 20.0 mg/kg
[10] = both, Sprague-Dawley, rat, in vivo, po, 40 mg/kg, rats, p.o. 40.0 mg/kg
[11] = both, Sprague-Dawley, rat, in vivo, po, 40 mg/kg, rats, p.o. 40.0 mg/kg vs i.v. 3.3 mg/kg
[12] = rats, harmine p.o. 40.0 mg/kg co-administered with probenecid 20.0 mg/kg
[13] = after oral harmaline 40.0 mg/kg, 24 h
[14] = after oral harmaline 40.0 mg/kg, 48 h
[15] = after oral harmaline 40.0 mg/kg, 72 h
[16] = after oral harmaline 40.0 mg/kg
[17] = after oral harmine 40.0 mg/kg, 24 h
[18] = after oral harmine 40.0 mg/kg, 48 h
[19] = after oral harmine 40.0 mg/kg, 72 h
[20] = with MK571 0.05 mM (50 μM), + MK571 0.05 mM (MRP2)
[21] = with probenecid 0.2 mM (200 μM), + Probenecid 0.2 mM (MRP2)

COc1ccc2c(c1)[nH]c1c(C)nccc12 [Harmine]
Vd [1, 6]: 10.4 ± 5.75 L/kg
clearance [1, 6]: 2.45 L/h/kg
k el [1, 6]: 8.33e-05 s⁻¹
AUC(0-t) [1, 7]: 1.26 ± 0.238 µg·h/mL
AUC(0-inf) [1, 7]: 1.27 ± 0.239 µg·h/mL
Cmax [1, 7]: 2.32 ± 0.663 µg/mL
MRT [1, 7]: 1.01 ± 0.3 h
Tmax [1, 7]: 0.03 h
k el [1, 8]: 1.39e-05 s⁻¹
AUC(0-t) [1, 9]: 0.292 ± 0.0704 µg·h/mL
AUC(0-t) [1, 10]: 0.154 ± 0.0465 µg·h/mL
AUC(0-inf) [1, 9]: 0.349 ± 0.0767 µg·h/mL
AUC(0-inf) [1, 10]: 0.184 ± 0.0574 µg·h/mL
Cmax [1, 9]: 0.0989 ± 0.0311 µg/mL
Cmax [1, 10]: 0.067 ± 0.0343 µg/mL
bioavailability [1, 9]: 2.14 ± 0.59%
bioavailability [1, 11]: 1.09 ± 0.27%
MRT [1, 9]: 13.7 ± 3.54 h
MRT [1, 10]: 4.41 ± 1.03 h
Tmax [1, 9]: 0.79 ± 0.12 h
Tmax [1, 10]: 0.56 ± 0.13 h
increase of F-value after probenecid co-administration ([1]; rats, harmine p.o. 40.0 mg/kg + probenecid 20.0 mg/kg vs harmine alone): 1.96 folds
CL [1, 12]: 118.00432 ± 24.59981 L/h/kg
Ka [1, 12]: 0.73 ± 0.46 h⁻¹
Vd [1, 12]: 2464.53513 ± 990.15463 L/kg
Ka ([1]; rats, i.v. 3.3 mg/kg): 2.71 ± 1.24 h⁻¹
CL ([1]; rats, p.o. 40.0 mg/kg): 233.43953 ± 56.2046 L/h/kg
Ka ([1]; rats, p.o. 40.0 mg/kg): 0.63 ± 0.42 h⁻¹
Vd ([1]; rats, p.o. 40.0 mg/kg): 4761.64239 ± 1571.7721 L/kg
Cumulative excretion in feces (%) of the analyte [2, 13]: 0.01 ± 0.01%
Cumulative excretion in urine (%) of the analyte [2, 13]: 0.03 ± 0.01%
Cumulative excretion in feces (%) of the analyte [2, 14]: 0.02 ± 0.01%
Cumulative excretion in urine (%) of the analyte [2, 14]: 0.04 ± 0.01%
Cumulative excretion in feces (%) of the analyte [2, 15]: 0.02 ± 0.01%
Cumulative excretion in urine (%) of the analyte [2, 15]: 0.05 ± 0.01%
Cumulative excretion of the analyte, SUM of urine and feces [2, 16]: 0.07 ± 0.01%
Cumulative excretion in feces (%) of the analyte [2, 17]: 0.57 ± 0.37%
Cumulative excretion in urine (%) of the analyte [2, 17]: 0.02 ± 0.02%
Cumulative excretion in feces (%) of the analyte [2, 18]: 0.65 ± 0.36%
Cumulative excretion in urine (%) of the analyte [2, 18]: 0.02 ± 0.03%
Cumulative excretion in feces (%) of the analyte [2, 19]: 0.65 ± 0.36%
Cumulative excretion in urine (%) of the analyte [2, 19]: 0.03 ± 0.03%
Cumulative excretion of the analyte, SUM of urine and feces ([2]; after oral harmine 40.0 mg/kg): 0.69 ± 0.36%
Modulatory effect ([3]; + MK571 0.05 mM (MRP2)): +
Modulatory effect ([3]; + Probenecid 0.2 mM (MRP2)): +
Papp A→B at 120 min, 2 μM [4, 20]: 208 ± 14.9 nm/s
Papp B→A at 120 min, 2 μM [4, 20]: 118 ± 12.5 nm/s
Papp A→B at 120 min, 2 μM [4, 21]: 100 ± 16.9 nm/s
Papp B→A at 120 min, 2 μM [4, 21]: 86.2 ± 10.5 nm/s
Papp A→B at 120 min, 2 μM ([4]; Control (no inhibitor)): 35.5 ± 4 nm/s
Papp B→A at 120 min, 2 μM ([4]; Control (no inhibitor)): 81.8 ± 9.8 nm/s
F-value (absolute bioavailability) [5]: 5.33%

COc1ccc2c3c([nH]c2c1)C(C)=NCC3 [Harmaline]
Vd [1, 6]: 94.1 ± 102 L/kg
clearance [1, 6]: 10.4 L/h/kg
k el [1, 6]: 6.39e-05 s⁻¹
AUC(0-t) [1, 7]: 0.299 ± 0.0643 µg·h/mL
AUC(0-inf) [1, 7]: 0.307 ± 0.0643 µg·h/mL
Cmax [1, 7]: 0.258 ± 0.0649 µg/mL
MRT [1, 7]: 2.53 ± 1.42 h
Tmax [1, 7]: 0.03 h
k el [1, 8]: 5.56e-05 s⁻¹
AUC(0-t) [1, 10]: 0.644 ± 0.328 µg·h/mL
AUC(0-inf) [1, 10]: 0.666 ± 0.322 µg·h/mL
Cmax [1, 10]: 0.118 ± 0.059 µg/mL
bioavailability [1, 11]: 17.1 ± 10.1%
MRT [1, 10]: 6.24 ± 3.18 h
Tmax [1, 10]: 1.76 ± 1.11 h
Ka ([1]; rats, i.v. 3.3 mg/kg): 1.26 ± 0.83 h⁻¹
T1/2a ([1]; rats, i.v. 3.3 mg/kg): 1.24 ± 1.02 h
T1/2e ([1]; rats, i.v. 3.3 mg/kg): 4.05 ± 1.39 h
T1/2d ([1]; rats, i.v. 3.3 mg/kg): 1.57 ± 1.25 h
CL ([1]; rats, p.o. 40.0 mg/kg): 74.66925 ± 41.32069 L/h/kg
Ka ([1]; rats, p.o. 40.0 mg/kg): 0.71 ± 0.38 h⁻¹
T1/2a ([1]; rats, p.o. 40.0 mg/kg): 1.74 ± 1.13 h
T1/2e ([1]; rats, p.o. 40.0 mg/kg): 5.13 ± 1.52 h
T1/2d ([1]; rats, p.o. 40.0 mg/kg): 2.40 ± 1.20 h
Vd ([1]; rats, p.o. 40.0 mg/kg): 705.97445 ± 595.53126 L/kg
Cumulative excretion in feces (%) of the analyte [2, 13]: 0.14 ± 0.10%
Cumulative excretion in urine (%) of the analyte [2, 13]: 4.00 ± 4.36%
Cumulative excretion in feces (%) of the analyte [2, 14]: 0.19 ± 0.12%
Cumulative excretion in urine (%) of the analyte [2, 14]: 4.71 ± 4.20%
Cumulative excretion in feces (%) of the analyte [2, 15]: 0.19 ± 0.12%
Cumulative excretion in urine (%) of the analyte [2, 15]: 4.85 ± 4.17%
Cumulative excretion of the analyte, SUM of urine and feces [2, 16]: 5.05 ± 4.12%
Modulatory effect ([3]; + MK571 0.05 mM (MRP2)): −
Modulatory effect ([3]; + Probenecid 0.2 mM (MRP2)): −
Papp A→B at 120 min, 2 μM [4, 20]: 318 ± 13.7 nm/s
Papp B→A at 120 min, 2 μM [4, 20]: 409 ± 54.8 nm/s
efflux ratio at 120 min, 2 μM [4, 20]: 1.34
Papp A→B at 120 min, 2 μM [4, 21]: 329 ± 22.3 nm/s
Papp B→A at 120 min, 2 μM [4, 21]: 419 ± 55.8 nm/s
efflux ratio at 120 min, 2 μM [4, 21]: 1.28
Papp A→B at 120 min, 2 μM ([4]; Control (no inhibitor)): 243 ± 27.2 nm/s
Papp B→A at 120 min, 2 μM ([4]; Control (no inhibitor)): 324 ± 38.1 nm/s
efflux ratio at 120 min, 2 μM ([4]; Control (no inhibitor)): 1.33
F-value (absolute bioavailability) [5]: 24.99%
